Experimental data as given in patent US20240108634A1, “COMPOSITIONS AND METHODS FOR INHIBITING YAP” (The United States Government as represented by the …, priority 2021, published 2024).

Tests used:
YAP-TEAD interaction = target: T1, YAP-TEAD interaction (Homo sapiens, UniProt P46937); assay: Co-immunoprecipitation of myc-TEAD with HA-YAP from treated LN229 cells; assay type: cell-based; conditions: LN229 cells, 24 h
T1 construct: expressed in transfected cells; host or cells: LN229
Procedure: FIGS. 1A-G show the identification of a YAP1-TEAD1 binding interface inhibitor. […] The Gal4 DBD was fused to residues 50-171 of human YAP1 and the Gal4 AD was fused to residues 194-411 of human TEAD1. These fusions were expressed in yeast containing reporters harboring Gal4 upstream activating sequences (UAS). […] Yeast expressing either p53-DBD and SV40 large T antigen-AD fusions or YAP1-DBD and TEAD1-AD fusions were plated on selective media. Compounds were pinned onto the plate surfaces by robotic transfer and subsequently examined for halo formation (indicated by red circles). Compounds inhibiting YAP1-TEAD1 mediated growth on selective media while having no effect on p53-T antigen mediated yeast growth were considered specific. Compounds which blocked the growth of both strains were considered nonspecific and were classified as having general antifungal properties. […] His-tagged YAP (amino acids 50-171 of Accession No. NP_006097) was used in a GST pull-down assay using GST-TEAD (amino acids 194-411 of Accession No. NP_068780) immobilized on glutathione resin. Pull-down products were analyzed by SDS-PAGE and silver staining. […] Cells treated with antimycin A are shown as a negative control. […] Raw binding sensorgrams obtained at each concentration were fitted to a 1:1 binding model and Kon, Koff and KD were calculated by simultaneous non-linear regression analyses.
Protein and mRNA analyses, immunoprecipitation, in vitro bead-coupled inhibitor binding assays and HPLC analyses. […] Antigen-antibody complexes were detected using appropriate horseradish peroxidase-conjugated secondary antibodies (GE Healthcare) and enhanced chemiluminescence (Amersham ECL Prime). […] For quantitative RT-PCR, extraction of RNA was performed using Trizol® (Life Technologies). Total RNA was then quantified and integrity assessed using an Agilent 2100 Bioanalyzer (Agilent Technology). […] SYBR® Green quantitative PCR (Millipore Sigma) was performed in triplicate in 96-well optical plates on an ABI Prism 7000 Sequence Detection System (Life Technologies) according to the manufacturer's instructions. […]

full-length human YAP1 = target: T2, full-length human YAP1 (Homo sapiens, UniProt P46937); assay: Inhibitor-coupled bead binding of recombinant HA-tagged YAP; conditions: immunoblot of bound HA-YAP
T2 construct: purified recombinant HA-tagged full-length human YAP1; made in house
Procedure: FIGS. 1A-G show the identification of a YAP1-TEAD1 binding interface inhibitor. […] The Gal4 DBD was fused to residues 50-171 of human YAP1 and the Gal4 AD was fused to residues 194-411 of human TEAD1. These fusions were expressed in yeast containing reporters harboring Gal4 upstream activating sequences (UAS). […] Yeast expressing either p53-DBD and SV40 large T antigen-AD fusions or YAP1-DBD and TEAD1-AD fusions were plated on selective media. Compounds were pinned onto the plate surfaces by robotic transfer and subsequently examined for halo formation (indicated by red circles). […] Pull-down products were analyzed by SDS-PAGE and silver staining. […] Raw binding sensorgrams obtained at each concentration were fitted to a 1:1 binding model and Kon, Koff and KD were calculated by simultaneous non-linear regression analyses.
Protein and mRNA analyses, immunoprecipitation, in vitro bead-coupled inhibitor binding assays and HPLC analyses. […] Antigen-antibody complexes were detected using appropriate horseradish peroxidase-conjugated secondary antibodies (GE Healthcare) and enhanced chemiluminescence (Amersham ECL Prime). […] For quantitative RT-PCR, extraction of RNA was performed using Trizol® (Life Technologies). Total RNA was then quantified and integrity assessed using an Agilent 2100 Bioanalyzer (Agilent Technology). […]

T1 sequence (P46937 whole entry): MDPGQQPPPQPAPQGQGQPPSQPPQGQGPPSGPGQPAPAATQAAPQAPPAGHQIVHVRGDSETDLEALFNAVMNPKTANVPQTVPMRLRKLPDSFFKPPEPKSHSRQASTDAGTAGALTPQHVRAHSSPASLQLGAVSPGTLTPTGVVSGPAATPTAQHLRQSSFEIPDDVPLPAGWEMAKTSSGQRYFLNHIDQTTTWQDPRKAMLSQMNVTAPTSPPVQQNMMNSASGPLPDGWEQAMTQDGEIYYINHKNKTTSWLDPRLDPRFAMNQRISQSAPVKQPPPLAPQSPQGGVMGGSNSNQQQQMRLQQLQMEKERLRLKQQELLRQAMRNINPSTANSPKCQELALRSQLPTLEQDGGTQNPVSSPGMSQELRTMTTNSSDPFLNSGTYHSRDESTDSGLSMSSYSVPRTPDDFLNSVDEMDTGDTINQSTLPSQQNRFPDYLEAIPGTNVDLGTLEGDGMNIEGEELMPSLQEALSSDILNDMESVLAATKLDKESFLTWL
T2 sequence (P46937 whole entry): as above

Compound	Cell treatment concentration required for observable blockade of the interaction (YAP-TEAD interaction) [µM]	Inhibition of HA-YAP/myc-TEAD interaction at equimolar concentrations (YAP-TEAD interaction; equimolar to NSC682769)	Binding of YAP to compound-coupled beads (full-length human YAP1)
verteporfin	4	ineffective	
COc1ccc(CN2C(=O)c3ccccc3C2=O)c(OC)c1 [IRES-J007, reference compound]			no significant binding
